From paper PMC11923649, “Novel C-2 Aromatic Heterocycle-Substituted Triterpenoids Inhibit Hedgehog Signaling in GLI1 Overexpression Cancer Cells” (ACS Omega, 2025)

Experiments:
CCRF-CEM = assay: MTS cytotoxicity assay, 72 h, CCRF-CEM; type: cell-based; conditions: for IC50: Homo sapiens, CCRF-CEM, 72 h, MTS
Procedure: (§1) Based on the preliminary results and tests of a larger library of known triterpenoids, a small set of 2-substituted lupane and 18α-oleanane derivatives was designed and synthesized. As the first step, the cytotoxic activity of the synthesized derivatives was assessed using an MTS assay following 72 h of treatment (Table 1). Selected cell lines A549 (lung adenocarcinoma) and DU-145 (prostate cancer) are both dependent on Hh signaling. In addition, K562 (chronic myelogenous leukemia) was included as a cell line sensitive to Hh inhibitors[32] and a type of hematological malignancy with active Hh signaling.[33] MRC-5 lung fibroblasts and BJ human skin fibroblasts cell lines were used to evaluate the toxicity against nontumor cells. Compounds were also tested using the standard panel of other cancer cell lines, as described in our earlier work (Table 1).[27]
(§2) The human prostate tumor-derived cell line DU145 was obtained from ATCC (American Type Culture Collection) and cultured in RPMI 1640 (Roswell Park Memorial Institute) medium supplemented with 10% (v/v) fetal bovine serum (FBS). Human prostate tumor-derived LNCaP cells were obtained from ATCC and cultured in RPMI 1640 medium supplemented with 10% FBS. The human nonsmall cell lung carcinoma (NSCLC)-derived cell line HOP-62 was obtained from the DSMZ (German Collection of Microorganisms and Cell Cultures) and cultured in RPMI 1640 medium supplemented with 10% FBS. The human nonsmall cell lung carcinoma-derived cell line NCI-H322 was obtained from ECACC (European Collection of Authenticated Cell Cultures) and cultured in RPMI 1640 medium supplemented with 10% FBS. The human nonsmall cell lung carcinoma-derived cell line NCI-H522 was obtained from ATCC and cultured in RPMI 1640 medium supplemented with 10% FBS. The human lung tumor-derived cell line A549 was obtained from ATCC and cultured in Dulbecco’s Modified Eagle’s Medium (DMEM) supplemented with 10% FBS. The human medulloblastoma-derived cell line DAOY was obtained from ATCC and cultured in Eagle’s Minimum Essential Medium (EMEM) supplemented with 10% FBS. The human glioblastoma-derived cell line T98G was obtained from ATCC and cultured in EMEM medium supplemented with 10% FBS, 1 mmol/L sodium pyruvate, and 1 mmol/L nonessential amino acid mixture. All the above-mentioned cell lines were cultured at 37 °C in an atmosphere of 5% CO2 with 95% humidity. The cytotoxicity MTS assays were performed using MTS (3-(4,5-dimethylthiazol-2-yl)-5-(3-carboxymethoxyphenyl)-2-(4-sulfophenyl)-2H-tetrazolium) tetrazolium salt. Briefly, cells were seeded in a 384-well transparent plate in a volume of 25 μL and a concentration of 15,000 cells/mL (DU145, LNCaP, HOP-62, A549, DAOY, T98G) or 30,000 cells/mL (NCI-H322, NCI-H522). The next day, cells were exposed to compounds in a concentration range of 50–0.0975 μmol/L (dilution factor 2) and cultured in the presence of the compounds for 72 h. After 72 h, 5 μL of MTS/phenazine methosulfate solution was pipetted into each well and incubation continued for 1–4 h. Finally, the absorbance at 490 nm was measured using an EnVision multifunctional modular reader (PerkinElmer). The IC50 value was determined using Dotmatics software.

HCT116 p53–/– = assay: MTS cytotoxicity assay, 72 h, HCT116 p53–/–; type: cell-based; conditions: Homo sapiens, HCT-116, 72 h
Procedure: as §1, §2

K562-TAX = assay: MTS cytotoxicity assay, 72 h, K562-TAX; type: cell-based
Procedure: as §1, §2

[1] = test system: BJ human skin fibroblasts; assay: MTS cytotoxicity assay, 72 h, BJ fibroblasts; type: cell-based; conditions: normal fibroblasts; for IC50: Homo sapiens, Skin fibroblast
Procedure: as §1, §2

[2] = test system: A549 (lung adenocarcinoma); assay: MTS cytotoxicity assay, 72 h, A549; type: cell-based; conditions: Homo sapiens, A549, 72 h
Procedure: as §1, §2

HCT 116 = assay: MTS cytotoxicity assay, 72 h, HCT 116; type: cell-based; conditions: Homo sapiens, HCT-116, 72 h
Procedure: as §1, §2

[3] = test system: K562 (chronic myelogenous leukemia); assay: MTS cytotoxicity assay, 72 h, K562; type: cell-based; conditions: Homo sapiens
Procedure: as §1, §2

MRC-5 lung fibroblasts = assay: MTS cytotoxicity assay, 72 h, MRC-5 fibroblasts; type: cell-based, human; conditions: normal fibroblasts; for IC50: Homo sapiens, MRC5, 72 h
Procedure: as §1, §2

U2OS = assay: MTS cytotoxicity assay, 72 h, U2OS; type: cell-based; conditions: Homo sapiens
Procedure: as §1, §2

DU-145 (prostate cancer) = assay: MTS cytotoxicity assay, 72 h, DU-145; type: cell-based, human; conditions: Homo sapiens, DU-145, 72 h
Procedure: as §1, §2

CEM-DNR = assay: MTS cytotoxicity assay, 72 h, CEM-DNR; type: cell-based; conditions: Homo sapiens
Procedure: as §1, with “1).[27] […]” for “1).[27]”

[4] = CCRF-CEM vs average of BJ and MRC-5, full Table S1
[5] = IC50 of CCRF-CEM line vs average of both fibroblasts (BJ and MRC-5), Table 1

Row | SMILES | SI (selectivity index) (CCRF-CEM; [4]) | IC50 (CCRF-CEM; full Table S1) [µM] | IC50 (HCT116 p53–/–; full Table S1) [µM] | IC50 (K562-TAX; full Table S1) [µM] | IC50 ([1]; full Table S1) [µM] | IC50 ([2]; full Table S1) [µM] | IC50 (HCT 116; full Table S1) [µM] | IC50 ([3]; full Table S1) [µM] | IC50 (MRC-5 lung fibroblasts; full Table S1) [µM] | IC50 (U2OS; full Table S1) [µM] | IC50 (DU-145 (prostate cancer); full Table S1) [µM] | IC50 (CEM-DNR; full Table S1) [µM] | IC50 (CCRF-CEM; Table 1) [µM] | IC50 (HCT116 p53–/–; Table 1) [µM] | IC50 (K562-TAX; Table 1) [µM] | IC50 ([1]; Table 1) [µM] | IC50 ([2]; Table 1) [µM] | IC50 (HCT 116; Table 1) [µM] | IC50 ([3]; Table 1) [µM] | IC50 (MRC-5 lung fibroblasts; Table 1) [µM] | other results
1 | C=C(C)[C@@H]1CC[C@]2(C(=O)OCc3ccccc3)CC[C@]3(C)C(CCC4[C@@]5(C)C=C(c6ccoc6)C(=O)C(C)(C)C5CC[C@]43C)C12 (stereo partly drawn) [Compound 10b, Benzyl 2-(3-Furanyl)-3-oxolupa-1,20(29)-dien-28-oate] | > 1.0 | > 50 | > 50 | > 50 | > 50 | > 50 | > 50 | > 50 | > 50 | > 50 | > 50 | > 50 |  |  |  |  |  |  |  |  | 
2 | C=C(C)[C@@H]1CC[C@]2(C(=O)OCc3ccccc3)CC[C@]3(C)C(CCC4[C@@]5(C)C=C(c6ccco6)C(=O)C(C)(C)C5CC[C@]43C)C12 (stereo partly drawn) [Compound 10a, Benzyl 2-(2-Furanyl)-3-oxolupa-1,20(29)-dien-28-oate] | > 1.0 | > 50 | > 50 | > 50 | > 50 | > 50 | > 50 | > 50 | > 50 | > 50 | > 50 | > 50 |  |  |  |  |  |  |  |  | 
3 | C=C(C)[C@@H]1CC[C@]2(C(=O)OCc3ccccc3)CC[C@]3(C)C(CCC4[C@@]5(C)C=C(c6ccc(Cl)s6)C(=O)C(C)(C)C5CC[C@]43C)C12 (stereo partly drawn) [Compound 10e] | > 1.0 | > 50 | > 50 | > 50 | > 50 | > 50 | > 50 | > 50 | > 50 | > 50 | > 50 | > 50 |  |  |  |  |  |  |  |  | 
4 | CC1(C)C(=O)C(c2ccc3c(c2)OCCO3)=C[C@@]2(C)C1CC[C@]1(C)C2CCC2C3[C@H]4OC[C@@]3(CCC4(C)C)CC[C@]21C (stereo partly drawn) [Compound 4j, 2-(1,4-Benzodioxan-6-yl)-19β,28-epoxyolean-1-en-3-one] | > 1.0 | > 50 | > 50 | > 50 | > 50 | > 50 | > 50 | > 50 | > 50 | > 50 | > 50 | > 50 |  |  |  |  |  |  |  |  | 
5 | CC1(C)C(=O)C(c2cncnc2)=C[C@@]2(C)C1CC[C@]1(C)C2CCC2C3[C@H]4OC[C@@]3(CCC4(C)C)CC[C@]21C (stereo partly drawn) [Compound 4i, 2-(Pyrimidin-5-yl)-19β,28-epoxyolean-1-en-3-one] |  |  |  |  |  |  |  |  |  |  |  | 27.4 | > 50 | > 50 | > 50 | > 50 | > 50 | > 50 | > 50 | > 50 | IC50 (U2OS; Table 1): > 50 µM; IC50 (DU-145 (prostate cancer); Table 1): > 50 µM; IC50 (CEM-DNR; Table 1): 27 µM
6 | C=C(C)[C@@H]1CC[C@]2(C(=O)OCc3ccccc3)CC[C@]3(C)C(CCC4[C@@]5(C)C=C(c6ccc7cn[nH]c7c6)C(=O)C(C)(C)C5CC[C@]43C)C12 (stereo partly drawn) [Compound 10n, Benzyl 2-(Indazol-6-yl)-3-oxolupa-1,20(29)-dien-28-oate] | > 1.0 | > 50 | > 50 | > 50 | > 50 | > 50 | > 50 | > 50 | > 50 | > 50 | > 50 | > 50 |  |  |  |  |  |  |  |  | 
7 | C=C(C)[C@@H]1CC[C@]2(C(=O)O)CC[C@]3(C)C(CCC4[C@@]5(C)C=C(c6cccnc6)C(=O)C(C)(C)C5CC[C@]43C)C12 (stereo partly drawn) [Compound 11g, 2-(Pyridin-3-yl)-3-oxolupa-1,20(29)-dien-28-oic acid] |  | 18.1 | 39.6 |  |  | 34.8 | 33.5 |  |  | 44.4 | 11.1 | 20.5 | 18 | 40 | 20 | > 50 | 35 | 34 | > 50 | > 50 | SI (selectivity index) (CCRF-CEM; [5]): >2.8; IC50 BJ ([1]; Table 1): below the detection limit; IC50 MRC-5 (MRC-5 lung fibroblasts; Table 1): below the detection limit; IC50 (U2OS; Table 1): 44 µM; IC50 (DU-145 (prostate cancer); Table 1): 11 µM; IC50 (CEM-DNR; Table 1): 21 µM
8 | C=C(C)[C@@H]1CC[C@]2(C(=O)O)CC[C@]3(C)C(CCC4[C@@]5(C)C=C(c6cncnc6)C(=O)C(C)(C)C5CC[C@]43C)C12 (stereo partly drawn) [Compound 11i, 2-(Pyrimidin-5-yl)-3-oxolupa-1,20(29)-dien-28-oic acid] |  |  |  |  |  |  | 34.6 |  |  |  | 17.5 | 41.8 | 19.7 | 41 | 25 | > 50 | > 50 | 35 | > 50 | > 50 | SI (selectivity index) (CCRF-CEM; [5]): >2.5; IC50 (U2OS; Table 1): > 50 µM; IC50 (DU-145 (prostate cancer); Table 1): 18 µM; IC50 (CEM-DNR; Table 1): 42 µM
